Data from article PMC8286840, “Identifying SARS-CoV-2 antiviral compounds by screening for small molecule inhibitors of Nsp3 papain-like protease” (Biochemical Journal, 2021).
Where a name gives a salt, the structure may show the parent alone. Read-outs that look alike come from different tables or passages of the source.

Tests used:
[1] = biological target: T1, SARS-CoV-2 PLpro (nsp3 1564–1878) (Severe acute respiratory syndrome coronavirus 2, UniProt P0DTD1); test: biochemical; parameters: FRET-quenched peptide (Pro3) cleavage by PLpro, 10 min pre-incubation, slope over 20 min, normalised to no-compound control; details: high concentration screen, read-out: % of control remaining
[2] = biological target: T1, SARS-CoV-2 PLpro (nsp3 1564–1878); test: biochemical; parameters: FRET-quenched peptide (Pro3) cleavage by PLpro, 10 min pre-incubation, slope over 20 min, normalised to no-compound control; details: low concentration screen, read-out: % of control remaining

## CO/N=C(\C(=O)N[C@@H]1C(=O)N2C(C(=O)[O-])=C(C[N+]3(C)CCCC3)CS[C@H]12)c1csc(N)n1 [Cefepime]
[1]; Well no.=1842
  remaining activity at 3.75 µM: 88.2%
[2]; Well no.=1842
  remaining activity at 1.25 µM: 90%

## CO[C@@]1(NC(=O)CSCC#N)C(=O)N2C(C(=O)O)=C(CSc3nnnn3C)CS[C@@H]21 [Cefmetazole sodium]
[1]; Well no.=134
  remaining activity at 3.75 µM: 99.6%
[2]; Well no.=134
  remaining activity at 1.25 µM: 101%

## CO/N=C(\C(=O)N[C@@H]1C(=O)N2C(C(=O)O)=C(Cn3ccc(=N)n3CCO)CS[C@H]12)c1csc(N)n1 [Cefoselis sulfate]
[1]; Well no.=5199
  remaining activity at 3.75 µM: 100%
[2]; Well no.=5199
  remaining activity at 1.25 µM: 96.6%

## CO/N=C(\C(=O)N[C@@H]1C(=O)N2C(C(=O)O)=C(COC(C)=O)CS[C@H]12)c1csc(N)n1 [Cefotaxime sodium]
[1]; Well no.=186
  remaining activity at 3.75 µM: 94.1%
[2]; Well no.=186
  remaining activity at 1.25 µM: 93.2%

## NC(=O)c1cc[n+](CC2=C(C(=O)O)N3C(=O)[C@@H](NC(=O)[C@@H](c4ccccc4)S(=O)(=O)[O-])[C@H]3SC2)cc1 [Cefsulodin sodium salt hydrate]
[1]; Well no.=92
  remaining activity at 3.75 µM: 99.3%
[2]; Well no.=92
  remaining activity at 1.25 µM: 98.3%

## CC(C)(O/N=C(\C(=O)N[C@@H]1C(=O)N2C(C(=O)[O-])=C(C[n+]3ccccc3)CS[C@H]12)c1csc(N)n1)C(=O)O [Ceftazidime]
[1]; Well no.=2221
  remaining activity at 3.75 µM: 98%
[2]; Well no.=2221
  remaining activity at 1.25 µM: 98.3%

## CO/N=C(\C(=O)N[C@@H]1C(=O)N2C(C(=O)O)=C(CSC(=O)c3ccco3)CS[C@H]12)c1csc(N)n1 [Ceftiofur HCl]
[1]; Well no.=5288
  remaining activity at 3.75 µM: 91.7%
[2]; Well no.=5288
  remaining activity at 1.25 µM: 90.5%

## CO/N=C(\C(=O)N[C@@H]1C(=O)N2C(C(=O)O)=C(CSc3nc(=O)c(O)nn3C)CS[C@H]12)c1csc(N)n1 [Ceftriaxone sodium]
[1]; Well no.=132
  remaining activity at 3.75 µM: 105%
[2]; Well no.=132
  remaining activity at 1.25 µM: 105%

## CC1=C(O)C(=O)C=C2C1=CC=C1[C@@]2(C)CC[C@@]2(C)[C@@H]3C[C@](C)(C(=O)O)CC[C@]3(C)CC[C@]12C [Celastrol]
[1]; Well no.=3430
  remaining activity at 3.75 µM: 94.6%
[2]; Well no.=3430
  remaining activity at 1.25 µM: 95.7%

## Cc1ccc(-c2cc(C(F)(F)F)nn2-c2ccc(S(N)(=O)=O)cc2)cc1 [Celecoxib]
[1]; Well no.=1818
  remaining activity at 3.75 µM: 88.2%
[2]; Well no.=1818
  remaining activity at 1.25 µM: 88.6%

## CCc1cc(-c2noc(-c3cc(OC)nc(C4CCCC4)c3)n2)cc(C)c1OC[C@@H](O)CO [Cenerimod]
[1]; Well no.=7052
  remaining activity at 3.75 µM: 105%
[2]; Well no.=7052
  remaining activity at 1.25 µM: 105%

## CCCCOCCOc1ccc(-c2ccc3c(c2)/C=C(/C(=O)Nc2ccc([S@@+]([O-])Cc4cncn4CCC)cc2)CCCN3CC(C)C)cc1 [Cenicriviroc Mesylate]
[1]; Well no.=8311
  remaining activity at 3.75 µM: 99.6%
[2]; Well no.=8311
  remaining activity at 1.25 µM: 99.4%

## CCCCOCCOc1ccc(-c2ccc3c(c2)/C=C(/C(=O)Nc2ccc([S@@+]([O-])Cc4cncn4CCC)cc2)CCCN3CC(C)C)cc1 [Cenicriviroc]
[1]; Well no.=8515
  remaining activity at 3.75 µM: 105%
[2]; Well no.=8515
  remaining activity at 1.25 µM: 104%

## CN(C)CCOC(=O)COc1ccc(Cl)cc1 [Centrophenoxine hydrochloride]
[1]; Well no.=46
  remaining activity at 3.75 µM: 107%
[2]; Well no.=46
  remaining activity at 1.25 µM: 103%

## CC1=C(C(=O)O)N2C(=O)[C@@H](NC(=O)[C@H](N)c3ccccc3)[C@H]2SC1 [Cephalexin hydrate]
[1]; Well no.=34
  remaining activity at 3.75 µM: 95.3%
[2]; Well no.=34
  remaining activity at 1.25 µM: 95.4%

## C/C=C(\C)C(=O)N[C@@H](c1ccccc1)[C@@H](O)C(=O)O[C@H]1C[C@@]2(O)[C@@H](OC(=O)c3ccccc3)[C@@H]3[C@]4(OC(C)=O)CO[C@@H]4C[C@H](O)[C@@]3(C)C(=O)[C@H](OC(C)=O)C(=C1C)C2(C)C [Cephalomannine]
[1]; Well no.=5204
  remaining activity at 3.75 µM: 99.1%
[2]; Well no.=5204
  remaining activity at 1.25 µM: 97.2%

## CC(=O)OCC1=C(C(=O)O)N2C(=O)[C@@H](NC(=O)Cc3cccs3)[C@H]2SC1 [Cephalothin sodium]
[1]; Well no.=224
  remaining activity at 3.75 µM: 96.4%
[2]; Well no.=224
  remaining activity at 1.25 µM: 93.6%

## CC(=O)OCC1=C(C(=O)O)N2C(=O)[C@@H](NC(=O)CSc3ccncc3)[C@H]2SC1 [Cephapirin sodium]
[1]; Well no.=188
  remaining activity at 3.75 µM: 99.7%
[2]; Well no.=188
  remaining activity at 1.25 µM: 101%

## COc1ccc2cc1Oc1ccc(cc1)C[C@H]1c3c(cc4c(c3Oc3cc5c(cc3OC)CCN(C)[C@@H]5C2)OCO4)CCN1C [Cepharanthine]
[1]; Well no.=3555
  remaining activity at 3.75 µM: 106%
[2]; Well no.=3555
  remaining activity at 1.25 µM: 102%

## CC1=C(C(=O)O)N2C(=O)[C@@H](NC(=O)[C@H](N)C3=CCC=CC3)[C@H]2SC1 [Cephradine]
[1]; Well no.=236
  remaining activity at 3.75 µM: 100%
[2]; Well no.=236
  remaining activity at 1.25 µM: 98.9%

## COCc1c(C(C)C)nc(C(C)C)c(/C=C/[C@@H](O)C[C@@H](O)CC(=O)O)c1-c1ccc(F)cc1 [Cerivastatin]
[1]; Well no.=1571
  remaining activity at 3.75 µM: 93.5%
[2]; Well no.=1571
  remaining activity at 1.25 µM: 91.1%

## C/C=C/C/C=C/CCC(=O)[C@H]1O[C@H]1C(N)=O [Cerulenin]
[1]; Well no.=3137
  remaining activity at 3.75 µM: 102%
[2]; Well no.=3137
  remaining activity at 1.25 µM: 93%

## O=C(O)COCCN1CCN(C(c2ccccc2)c2ccc(Cl)cc2)CC1 (stereo not drawn) [Cetirizine 2HCl]
[1]; Well no.=1712
  remaining activity at 3.75 µM: 98.8%
[2]; Well no.=1712
  remaining activity at 1.25 µM: 96.2%

## O=C(O)COCCN1CCN(C(c2ccccc2)c2ccc(Cl)cc2)CC1 (stereo not drawn) [Cetirizine (dihydrochloride)]
[1]; Well no.=7325
  remaining activity at 3.75 µM: 103%
[2]; Well no.=7325
  remaining activity at 1.25 µM: 104%

## C/C=C(/C)C(=O)O[C@H]1CC[C@@]2(C)[C@@H]3CC[C@H]4[C@]5(O)C[C@H](O)[C@@]6(O)[C@@H](CN7C[C@@H](C)CC[C@H]7[C@@]6(C)O)[C@]5(O)C[C@@]42O[C@]13O [Cevadine]
[1]; Well no.=3139
  remaining activity at 3.75 µM: 102%
[2]; Well no.=3139
  remaining activity at 1.25 µM: 103%

## C[C@@H]1O[C@@]2(CS1)CN1CCC2CC1 [Cevimeline (hydrochloride hemihydrate)]
[1]; Well no.=7571
  remaining activity at 3.75 µM: 90.9%
[2]; Well no.=7571
  remaining activity at 1.25 µM: 91.5%

## CC(CN(C)C)NC(=O)c1cccc2[nH]c(-c3ccncc3)nc12 (stereo not drawn) [ChX710]
[1]; Well no.=8551
  remaining activity at 3.75 µM: 101%
[2]; Well no.=8551
  remaining activity at 1.25 µM: 108%

## CCCCCCCCCCCCCC/C(C(=O)O)=C(\C)C(=O)O [Chaetomellic acid A]
[1]; Well no.=3141
  remaining activity at 3.75 µM: 96%
[2]; Well no.=3141
  remaining activity at 1.25 µM: 95.8%

## CO[C@H]1[C@@H](O)[C@@H](C)O[C@H](O[C@H]2[C@H](Oc3cccc4c(O)c5c(=O)oc6ccc(C)c7c(=O)oc(c34)c5c67)O[C@H](C)[C@H](O)[C@@H]2O)[C@@H]1O [Chartreusin]
[1]; Well no.=3508
  remaining activity at 3.75 µM: 98.4%
[2]; Well no.=3508
  remaining activity at 1.25 µM: 96.6%

## COc1ccc2c(c[n+](C)c3c4cc5c(cc4ccc23)OCO5)c1OC [Chelerythrine chloride]
[1]; Well no.=28
  remaining activity at 3.75 µM: 92.4%
[1]; Well no.=2359
  remaining activity at 3.75 µM: 105%
[2]; Well no.=28
  remaining activity at 1.25 µM: 92.2%
[2]; Well no.=2359
  remaining activity at 1.25 µM: 103%

## COc1ccc2c(c[n+](C)c3c4cc5c(cc4ccc23)OCO5)c1OC [Chelerythrine]
[1]; Well no.=3533
  remaining activity at 3.75 µM: 101%
[2]; Well no.=3533
  remaining activity at 1.25 µM: 102%

## O=C(O)c1cc(=O)cc(C(=O)O)[nH]1 [Chelidamic acid]
[1]; Well no.=282
  remaining activity at 3.75 µM: 90.8%
[2]; Well no.=282
  remaining activity at 1.25 µM: 86.7%
